Laboratory results as given in patent EP2061765B1, “Serine-threonine protein kinase and PARP modulators” (Senhwa Biosciences, Inc., priority 2006, dated 2008).

Experiments:
PanC1 = assay: Cell proliferation assay (Alamar Blue); type: cell-based; conditions: Homo sapiens, PANC-1, 96 h, PanC1 cells, four days
Experimental: (§1) A representative cell-proliferation assay protocol using Alamar Blue dye (stored at 4°C, use 20ul per well) is described hereafter. 96-well plate setup and compound treatment • a. Split and trypsinize cells. • b. Count cells using hemocytometer. • c. Plate 4,000-5,000 cells per well in 100 µl of medium and seed into a 96-well plate according to the following plate layout. Add cell culture medium only to wells B10 to B12. Wells B1 to B9 have cells but no compound added. [formula] [formula] • d. Add 100 µl of 2X drug dilution to each well in a concentration shown in the plate layout above. At the same time, add 100 µl of media into the control wells (wells B10 to B12). Total volume is 200 µl/well. • e. Incubate four (4) days at 37°C, 5% CO2 in a humidified incubator. • f. Add 20µl Alamar Blue reagent to each well. • g. Incubate for four (4) hours at 37°C, 5% CO2 in a humidified incubator. • h. Record fluorescence at an excitation wavelength of 544nm and emission wavelength of 590nm using a microplate reader.
(§2) In the assays, cells are cultured with a test compound for approximately four days, the dye then is added to the cells and fluorescence of […] dye is detected after approximately four hours. Different types of cells can be utilized in the assays (e.g., HCT-116 human colorectal carcinoma cells, PC-3 human prostatic cancer cells and MiaPaca human pancreatic carcinoma cells). Anti-proliferative effects of representative compounds are provided hereafter.

BxPC3 = assay: Cell proliferation assay (Alamar Blue); type: cell-based; conditions: Homo sapiens, BXPC-3, 96 h, BxPC3 cells, four days
Experimental: as §1, §2

| Compound | IC50 (PanC1) [µM] | IC50 (BxPC3) [µM] |
| --- | --- | --- |
| O=C(O)c1ccc2c(c1)nc(Nc1ccccc1)c1nc(NCCCO)ncc12 [drawing 465] | 34.2 | 9.41 |
| O=C(O)c1ccc2c(c1)nc(Nc1ccccc1)c1nc(NC3CCNCC3)ncc12 [drawing 466] | > 50 | 8.36 |
| CCN(CC)CCNc1ncc2c(n1)c(Nc1ccccc1)nc1cc(C(=O)O)ccc12 [drawing 467] | > 50 | 10.7 |
| O=C(O)c1ccc2c(c1)nc(Nc1ccccc1)c1nc(NCCN3CCOCC3)ncc12 [drawing 468] | 27.4 | 4.67 |
| O=C(O)c1ccc2c(c1)nc(Nc1ccccc1)c1nc(NCCCN3CCOCC3)ncc12 [drawing 469] | > 50 | 1.65 |
| C#Cc1cccc(Nc2nc3cc(C(=O)O)ccc3c3cnc(NC4CC4)nc23)c1 [drawing 470] | 5.79 | 1.05 |
| C#Cc1cccc(Nc2nc3cc(C(=O)O)ccc3c3cnc(NCCC)nc23)c1 [drawing 471] | 8.12 | 3 |
| C#Cc1cccc(Nc2nc3cc(C(=O)O)ccc3c3cnc(NCCOC)nc23)c1 [drawing 472] | 4.61 | 1.17 |
| C#Cc1cccc(Nc2nc3cc(C(=O)O)ccc3c3cnc(NC4CCNCC4)nc23)c1 [drawing 473] | > 50 | 25.3 |
| C#Cc1cccc(Nc2nc3cc(C(=O)O)ccc3c3cnc(NCCCN4CCOCC4)nc23)c1 [drawing 474] | 11.2 | 3.6 |
| C#Cc1cccc(Nc2nc3cc(C(=O)O)ccc3c3cnc(NC)nc23)c1 [drawing 475] | 13.8 | 1.6 |
| O=C(O)c1ccc2c(c1)nc(Nc1ccc(Cl)c(C(F)(F)F)c1)c1ccncc12 [drawing 476] | 17.9 | 2.6 |
| O=C(O)c1ccc2c(c1)nc(Nc1cccc(Cl)c1)c1nc(NC3CC3)ncc12 [drawing 477] | 4.61 | 1.95 |
| O=C(O)c1ccc2c(c1)nc(Nc1cccc(C(F)(F)F)c1)c1ncncc12 [drawing 478] | 35.2 | 4.31 |
| CCOc1ncc2c(n1)c(Nc1cccc(C(F)(F)F)c1)nc1cc(C(=O)O)ccc12 [drawing 479] | > 50 | 49.6 |
| CNc1ncc2c(n1)c(Nc1cccc(Cl)c1)nc1cc(C(=O)O)ccc12 [drawing 480] | 8.3 | 2.56 |
| CN(C)c1ncc2c(n1)c(Nc1cccc(Cl)c1)nc1cc(C(=O)O)ccc12 [drawing 481] | > 50 | 42.7 |
| Nc1ncc2c(n1)c(Nc1cccc(Cl)c1)nc1cc(C(=O)O)ccc12 [drawing 482] | 3.62 | 0.61 |
| CC(C)Nc1ncc2c(n1)c(Nc1cccc(Cl)c1)nc1cc(C(=O)O)ccc12 [drawing 483] | 33.2 | 36.9 |
| O=C(O)c1ccc2c(c1)nc(Nc1cccc(C(F)(F)F)c1)c1nc(NC3CC3)ncc12 [drawing 484] | 2.03 | 10 |
| CCNc1ncc2c(n1)c(Nc1cccc(Cl)c1)nc1cc(C(=O)O)ccc12 [drawing 485] | 1.61 | 2.37 |
| CNc1ncc2c(n1)c(Nc1ccc(F)c(Cl)c1)nc1cc(C(=O)O)ccc12 [drawing 486] | > 50 | 1.46 |
| Nc1ncc2c(n1)c(Nc1ccc(F)c(Cl)c1)nc1cc(C(=O)O)ccc12 [drawing 487] | 8.03 | 0.7 |
| O=C(O)c1ccc2c(c1)nc(Nc1ccc(F)c(Cl)c1)c1nc(NC3CC3)ncc12 [drawing 488] | 8.53 | 9.48 |
| COCCNc1ncc2c(n1)c(Nc1ccc(F)c(Cl)c1)nc1cc(C(=O)O)ccc12 [drawing 489] | > 50 | 1.61 |
| C#Cc1cccc(Nc2nc3cc(C(=O)O)ccc3c3cnc(NCCOCC)nc23)c1 [drawing 490] | 2.41 | 0.69 |
| C#Cc1cccc(Nc2nc3cc(C(=O)O)ccc3c3cnc(NCCCOCC)nc23)c1 [drawing 491] | 1.04 | 0.48 |
| C#Cc1cccc(Nc2nc3cc(C(=O)O)ccc3c3cnc(NCCCOC(C)C)nc23)c1 [drawing 492] | 3.1 | 0.97 |
